Patent US20070135499A1 (Aerie Pharmaceuticals, Inc., priority 2005, published 2007)

Target: T1, hGRK-2 (Homo sapiens, UniProt P25098)
T1 sequence (P25098 1-689): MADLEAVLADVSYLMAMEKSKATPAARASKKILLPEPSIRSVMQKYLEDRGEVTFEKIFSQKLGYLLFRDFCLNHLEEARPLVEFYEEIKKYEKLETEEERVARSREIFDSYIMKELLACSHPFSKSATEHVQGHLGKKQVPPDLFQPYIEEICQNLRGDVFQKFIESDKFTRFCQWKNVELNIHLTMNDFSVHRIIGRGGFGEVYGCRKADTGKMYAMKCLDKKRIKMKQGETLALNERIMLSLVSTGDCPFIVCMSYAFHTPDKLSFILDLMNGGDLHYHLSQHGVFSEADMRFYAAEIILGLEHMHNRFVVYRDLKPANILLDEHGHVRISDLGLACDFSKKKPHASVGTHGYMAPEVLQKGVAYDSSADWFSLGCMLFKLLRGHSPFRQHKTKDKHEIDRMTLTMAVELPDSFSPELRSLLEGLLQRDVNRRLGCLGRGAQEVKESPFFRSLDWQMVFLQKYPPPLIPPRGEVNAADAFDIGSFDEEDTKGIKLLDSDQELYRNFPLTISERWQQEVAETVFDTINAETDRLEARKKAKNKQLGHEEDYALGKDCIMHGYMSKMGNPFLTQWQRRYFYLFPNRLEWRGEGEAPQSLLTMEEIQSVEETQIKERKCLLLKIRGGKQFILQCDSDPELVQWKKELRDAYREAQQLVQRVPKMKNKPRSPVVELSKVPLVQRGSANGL
Assay: luciferase-based (Kinase-Glo) biochemical kinase inhibition assay, hGRK-2
Conditions: luciferase assay, casein substrate, 10 μM ATP; read-out: GRK-2 inhibition, Ki class
Method: The inhibition of G-protein-coupled receptor kinases including hGRK-2 was determined for the hydrazide compounds using a biochemical assay. The inhibition of GRK-3, GRK-5 and GRK-6 was also determined using the same assay for some of the hydrazide derivatives.
The protein kinase inhibition was determined using a biochemical assay utilizing the light emission of a luciferase reaction. The luciferase-based assay operates on the following reaction principles: [drawing 10]
An inhibitor of GRK-2 will increase in the amount of ATP in solution, as shown. Thus, an inhibitor of GRK-2 will drive the luciferase reaction to the right, resulting in more light emitted. The amount of light emitted is proportional to the inhibition resulting from the GRK-2 inhibitor. The luciferase-based assay was also used to test some of the hydrazides for the inhibition properties towards other kinases.
The test procedure was as follows:
• 50 mM HEPES, pH 7.5 • 10 mM MgCl2 • 100 μM activated sodium orthovanadate • 0.01% CHAPS • 0.1% BSA • 1 mM DTT (added fresh daily) 10× Assay Buffer Stock: • 500 mM HEPES, pH 7.5 • 100 mM MgCl2 • 1 mM activated sodium orthovanadate • 0.1% CHAPS • 1% BSA (leave out for 10× compound dilution buffer) Final Assay Conditions: • 50 μM test compound • 20 μM casein • 10 μM ATP • 50 nM hGRK2 • 4.5% DMSO • 90-120 minute incubation
Stopped by addition of 30 μl 3×-diluted Kinase-Glo reagent containing 0.01% trypan blue. Counted on FUSION plate reader.
Compound Dilution and Transfer
Prepare sufficient buffer containing 40% DMSO to add 20 μl/well to the number of plates being assayed. This buffer should not contain BSA because it will precipitate with addition of 40% DMSO. (EXAMPLE: To make 3000 ml compound dilution buffer: 1200 ml DMSO, 180 ml 10× compound dilution buffer, 1615 ml ultrapure water, 3 ml 1M DTT.).
Using Multidrop, add 20 μl of compound dilution buffer to all wells of the 384-well daughter plate (add 1 μl DMSO to control wells). This will result in a daughter plate which contains 21 μl of ˜500 μM test compound.
Using the PlateTrak, transfer 5 μl of the test compounds to a 384-well, non-binding, white microtiter plate.
Prepare sufficient volume of buffer (with BSA and 1 mM DTT) containing 125 nM GRK2 and 25 μM ATP. (Example: To 219 ml of buffer was added 550 μl 10 mM ATP and 350 μl 79 μM GRK2).
Using Multidrop, add 20 μl of GRK2/ATP mixture to all wells of the microtiter plate.
Prepare sufficient volume of buffer (with BSA and 1 mM DTT) containing 40 μM casein. (EXAMPLE: To 211 ml buffer add 8.8 ml 1 mM casein)
Using Multidrop, add 25 μl to columns 1 through 23 of the microtiter plate. Add 25 μl of complete buffer to column 24 (blanks).
Mix reaction gently by tapping (Multidrop addition of casein does a decent job of mixing), stack plates and incubate at room temperature for between 90 and 120 minutes. Assay progression can be tracked in a separate plate if desired. Target 20-30% ATP consumption. Try to avoid exceeding 40% consumption as kinetics might become non-linear due to substrate (ATP) depletion.
Addition of Kinase-Glo Reagents
The Kinase-Glo reagent can be diluted 3-fold with no loss of data quality in this assay. Additionally, since the library contains many colored compounds which will quench the light emitted from the well resulting in a false negative (kinase inhibitors result in less ATP consumption thus more light emitted), the entire reaction is subject to intentional quench to override this effect. This intentional quench is accomplished by the addition of 0.01% trypan blue to the Kinase-Glo reagents. (EXAMPLE: 100 ml 1× Kinase-Glo reagents (prepared according to product insert), 200 ml assay buffer, 7.5 ml 0.4% trypan blue.
Using Multidrop, add 30 μl to all wells of the assay plate.
Count on FUSION plate reader in luminescence mode.

Structure (SMILES) | Ki [µM]
O=C(CNc1ccccc1)N/N=C/c1c(Cl)cncc1Cl [Example 2, Phenylamino-acetic acid [1-(3,5-dichloro-pyridin-4-yl)-meth-(E)-ylidene]-hydrazide] | 0.1 to 1
O=C(CNc1ccc(Cl)cc1)N/N=C/c1c(Cl)cncc1Cl [Example 18, (4-Chloro-phenylamino)-acetic acid [1-(3,5-dichloro-pyridin-4-yl)-meth-(E)-ylidene]-hydrazide] | 1 to 10
O=C(CNc1ccc(F)cc1)N/N=C/c1c(Cl)cncc1Cl [Example 14, (4-Fluoro-phenylamino)-acetic acid [1-(3,5-dichloro-pyridin-4-yl)-meth-(E)-ylidene]-hydrazide] | 1 to 10
N#Cc1cccc(NCC(=O)N/N=C/c2ccncc2)c1 [Example 39, (3-Cyano-phenylamino)-acetic acid [1-pyridin-4-yl-meth-(E)-ylidene]-hydrazide] | 1 to 10
O=C(CNc1cccc(I)c1)N/N=C/c1c(Cl)cncc1Cl [Example 11, (3-Iodo-phenylamino)-acetic acid [1-(3,5-dichloro-pyridin-4-yl)-meth-(E)-ylidene]-hydrazide] | 1 to 10
N#Cc1cccc(NCC(=O)N/N=C/c2c(Cl)cncc2Cl)c1 [Example 3, (3-Cyano-phenylamino)-acetic acid [1-(3,5-dichloro-pyridin-4-yl)-meth-(E)-ylidene]-hydrazide] | 1 to 10
O=C(CNc1ccc(Br)cc1)N/N=C/c1ccncc1 [Example 36, (4-Bromo-phenylamino)-acetic acid [1-pyridin-4-yl-meth-(E)-ylidene]-hydrazide] | 1 to 10
O=C(CNc1cccc(C(F)(F)F)c1)N/N=C/c1c(Cl)cncc1Cl [Example 12, (3-Trifluoromethyl-phenylamino)-acetic acid [1-(3,5-dichloro-pyridin-4-yl)-meth-(E)-ylidene]-hydrazide] | > 10
CS(=O)(=O)Nc1cccc(NCC(=O)N/N=C/c2c(Cl)cncc2Cl)c1 [Example 24] | 1 to 10

Next, values leading:

Ki [µM] | Structure (SMILES)
0.01 to 0.1 | O=C(CNc1cccc(Oc2ccc(F)cc2F)c1)N/N=C/c1ccncc1 [Example 84, [3-(2,4-Difluoro-phenoxy)-phenylamino]-acetic acid [1-pyridin-4-yl-meth-(E)-ylidene]-hydrazide]
> 10 | CC(=O)Nc1cccc(NCC(=O)N/N=C/c2ccncc2)c1 [Example 72, N-(3-{[1-Pyridin-4-yl-meth-(E)-ylidene-hydrazinocarbonylmethyl]-amino}-phenyl)-acetamide]
> 10 | O=C(CNc1ccccc1N1CCCCC1)N/N=C/c1ccncc1 [Example 74, (2-Piperidin-1-yl-phenylamino)-acetic acid [1-pyridin-4-yl-meth-(E)-ylidene]-hydrazide]
> 10 | O=C(CNc1cccc(Cl)c1)NNCc1ccncc1 [Example 95, (3-Chloro-phenylamino)-acetic acid N′-pyridin-4-ylmethyl-hydrazide]
> 10 | O=C(CNc1cccc(-n2cncn2)c1)N/N=C/c1ccncc1 [Example 78, (3-[1,2,4]Triazol-1-yl-phenylamino)-acetic acid [1-pyridin-4-yl-meth-(E)-ylidene]-hydrazide]
> 10 | O=C(CNc1ccc(C(F)(F)F)cc1)N/N=C/c1ccncc1 [Example 54, (4-Trifluoromethyl-phenylamino)-acetic acid [1-pyridin-4-yl-meth-(E)-ylidene]-hydrazide]
1 to 10 | O=C(CNc1ccc(Cl)cc1)N/N=C/c1ccncc1 [Example 57, (4-Chloro-phenylamino)-acetic acid [1-pyridin-4-yl-meth-(E)-ylidene]-hydrazide]
> 10 | O=C(CNc1cccc(Cl)c1)N/N=C/c1ccnc2ccccc12 [Example 91, (3-Chloro-phenylamino)-acetic acid [1-quinolin-4-yl-meth-(E)-ylidene]-hydrazide]
> 10 | O=C(CNc1cccc(-n2cccn2)c1)N/N=C/c1ccncc1 [Example 82, (3-Pyrazol-1-yl-phenylamino)-acetic acid [1-pyridin-4-yl-meth-(E)-ylidene]-hydrazide]
